From ChEMBL document CHEMBL3399993, “Design and synthesis of novel quinoline-aminopiperidine hybrid analogues as Mycobacterium tuberculosis DNA gyraseB inhibitors” (Bioorg Med Chem, 2015)
Values after ≈ are worked out from the molar mass of the structure shown.

Columns and labels:
[1] = molecular target: DNA gyrase subunit A/DNA gyrase subunit B (Mycobacterium tuberculosis (strain ATCC 25618 / H37Rv), UniProt P9WG45+P9WG47); test: Inhibition of Mycobacterium tuberculosis GyrA/GyrB using relaxed pBR322 substrate incubated for 30 mins by ethidium bromide staining and electrophoresis based DNA supercoiling assay
DNA gyrase subunit A/DNA gyrase subunit B, sequence (P9WG45 whole entry): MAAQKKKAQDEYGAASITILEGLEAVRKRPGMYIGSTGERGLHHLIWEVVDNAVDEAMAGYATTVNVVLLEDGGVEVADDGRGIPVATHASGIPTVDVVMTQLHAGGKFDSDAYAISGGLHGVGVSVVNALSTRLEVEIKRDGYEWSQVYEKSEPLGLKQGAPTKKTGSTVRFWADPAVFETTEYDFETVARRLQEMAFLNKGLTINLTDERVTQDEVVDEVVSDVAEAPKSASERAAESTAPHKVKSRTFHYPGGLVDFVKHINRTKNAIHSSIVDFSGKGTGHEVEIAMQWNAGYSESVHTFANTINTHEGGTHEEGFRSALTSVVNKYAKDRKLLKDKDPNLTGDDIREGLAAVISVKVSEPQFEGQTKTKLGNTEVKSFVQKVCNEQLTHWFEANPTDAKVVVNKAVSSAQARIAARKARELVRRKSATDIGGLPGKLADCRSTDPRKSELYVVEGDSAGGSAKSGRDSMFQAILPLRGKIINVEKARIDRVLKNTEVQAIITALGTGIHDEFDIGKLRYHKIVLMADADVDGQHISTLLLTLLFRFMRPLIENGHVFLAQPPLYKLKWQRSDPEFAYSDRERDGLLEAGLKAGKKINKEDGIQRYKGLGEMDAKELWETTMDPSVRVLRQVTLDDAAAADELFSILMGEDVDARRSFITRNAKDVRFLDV
DNA gyrase subunit A/DNA gyrase subunit B, sequence (P9WG47 whole entry): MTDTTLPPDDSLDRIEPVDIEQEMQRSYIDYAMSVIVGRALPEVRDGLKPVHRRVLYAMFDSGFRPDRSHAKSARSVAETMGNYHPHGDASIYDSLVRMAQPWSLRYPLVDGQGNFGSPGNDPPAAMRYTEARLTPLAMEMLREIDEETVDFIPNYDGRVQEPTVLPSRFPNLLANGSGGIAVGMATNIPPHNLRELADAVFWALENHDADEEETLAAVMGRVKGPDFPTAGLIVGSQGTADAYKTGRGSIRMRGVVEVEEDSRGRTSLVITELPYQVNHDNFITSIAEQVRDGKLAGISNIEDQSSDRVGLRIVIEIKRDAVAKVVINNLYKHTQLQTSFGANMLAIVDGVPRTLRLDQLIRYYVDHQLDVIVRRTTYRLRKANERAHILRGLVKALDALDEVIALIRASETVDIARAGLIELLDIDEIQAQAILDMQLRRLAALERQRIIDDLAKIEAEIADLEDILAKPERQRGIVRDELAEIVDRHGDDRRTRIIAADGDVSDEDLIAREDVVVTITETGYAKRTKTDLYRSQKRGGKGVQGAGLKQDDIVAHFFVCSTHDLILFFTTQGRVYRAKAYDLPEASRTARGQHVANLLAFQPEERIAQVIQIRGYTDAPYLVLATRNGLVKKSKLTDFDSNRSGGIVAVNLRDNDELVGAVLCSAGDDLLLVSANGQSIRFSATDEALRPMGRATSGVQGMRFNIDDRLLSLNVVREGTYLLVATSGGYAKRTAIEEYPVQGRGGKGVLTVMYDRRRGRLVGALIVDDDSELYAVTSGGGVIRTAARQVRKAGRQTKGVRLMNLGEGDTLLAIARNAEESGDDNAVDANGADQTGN

[2] = tested on: Mycobacterium tuberculosis; test: Antimycobacterial activity against Mycobacterium tuberculosis H37Rv ATCC 27294 incubated for 7 days by microplate alamar blue assay method; format: functional; conditions: H37Rv ATCC 27294, 168 h
DNA gyrase subunit B = DNA gyrase subunit B (Mycobacterium smegmatis, UniProt P0C559); test: Inhibition of Mycobacterium smegmatis GyrB ATPase activity expressed in Escherichia coli BL21 (DE3) pLysS cells after 100 mins by inorganic phosphate release detection based malachite green reagent assay; parameters: species or system Mycolicibacterium smegmatis
DNA gyrase subunit B, sequence (P0C559 whole entry): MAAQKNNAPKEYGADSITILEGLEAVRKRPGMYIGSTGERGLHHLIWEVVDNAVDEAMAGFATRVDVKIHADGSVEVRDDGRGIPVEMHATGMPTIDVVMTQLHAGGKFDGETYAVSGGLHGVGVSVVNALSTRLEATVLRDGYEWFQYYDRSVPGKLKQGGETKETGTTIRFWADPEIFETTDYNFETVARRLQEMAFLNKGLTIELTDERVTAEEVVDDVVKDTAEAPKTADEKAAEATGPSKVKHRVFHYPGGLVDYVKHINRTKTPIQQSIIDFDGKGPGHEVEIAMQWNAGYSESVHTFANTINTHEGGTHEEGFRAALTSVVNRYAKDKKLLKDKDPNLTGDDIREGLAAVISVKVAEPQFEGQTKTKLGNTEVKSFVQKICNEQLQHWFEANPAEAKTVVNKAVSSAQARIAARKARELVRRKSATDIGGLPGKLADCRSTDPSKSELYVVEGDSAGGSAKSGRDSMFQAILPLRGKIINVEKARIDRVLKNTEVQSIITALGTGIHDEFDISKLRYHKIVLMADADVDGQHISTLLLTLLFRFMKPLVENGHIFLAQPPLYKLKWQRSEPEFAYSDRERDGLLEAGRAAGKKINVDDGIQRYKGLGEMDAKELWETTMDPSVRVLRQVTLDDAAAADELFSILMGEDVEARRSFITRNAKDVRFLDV

[3] = Cytotoxicity against mouse RAW264.7 cells assessed as inhibition of cell growth at 50 uM after 48 hrs by MTT assay; format: cell-based; conditions: read-out: GI

Cc1cc(N2CCC(NC(=O)Nc3ccc(Cl)cc3)CC2)c2ccccc2n1
IC50 [1]: 8.2 µM | MIC [2]: 7.91 µM (≈ 3.12 µg/mL) | IC50 (DNA gyrase subunit B): 12.9 µM | inhibition at 48 h, 50 µM [3]: 40.1%

Cc1cc(N2CCC(NC(=O)Nc3ccc(Cl)cc3)CC2)c2cc(C(F)(F)F)ccc2n1
IC50 [1]: 17.3 µM | MIC [2]: 48.5 µM (≈ 22.5 µg/mL) | IC50 (DNA gyrase subunit B): 34 µM | inhibition at 48 h, 50 µM [3]: 29.1%

COc1ccc(NC(=O)NC2CCN(c3cc(C)nc4ccc(C(F)(F)F)cc34)CC2)cc1
IC50 [1]: 19.8 µM | MIC [2]: 54.3 µM (≈ 24.9 µg/mL) | IC50 (DNA gyrase subunit B): 41.2 µM | inhibition at 48 h, 50 µM [3]: 29%

Cc1cc(N2CCC(NC(=O)Nc3ccccc3)CC2)c2cc(F)ccc2n1
IC50 [1]: 9.84 µM | MIC [2]: 33 µM (≈ 12.5 µg/mL) | IC50 (DNA gyrase subunit B): 20.5 µM | inhibition at 48 h, 50 µM [3]: 48.9%

Cc1cc(N2CCC(NC(=O)Nc3ccc([N+](=O)[O-])cc3)CC2)c2ccccc2n1
IC50 [1]: 10.6 µM | MIC [2]: 15.4 µM (≈ 6.25 µg/mL) | IC50 (DNA gyrase subunit B): 17 µM | inhibition at 48 h, 50 µM [3]: 30.4%

Cc1cc(N2CCC(NC(=S)Nc3ccc(Cl)cc3)CC2)c2cc(F)ccc2n1
IC50 [1]: 21.5 µM | MIC [2]: 31.7 µM (≈ 13.6 µg/mL) | IC50 (DNA gyrase subunit B): 41.1 µM | inhibition at 48 h, 50 µM [3]: 32.3%

COc1ccc2nc(C)cc(N3CCC(NC(=S)Nc4ccccc4)CC3)c2c1
IC50 [1]: 0.91 µM | MIC [2]: 3.81 µM (≈ 1.55 µg/mL) | IC50 (DNA gyrase subunit B): 2.14 µM | inhibition at 48 h, 50 µM [3]: 41.9%

COc1ccc(NC(=S)NC2CCN(c3cc(C)nc4ccccc34)CC2)cc1
IC50 [1]: 13.5 µM | MIC [2]: 30.2 µM (≈ 12.3 µg/mL) | IC50 (DNA gyrase subunit B): 19.4 µM | inhibition at 48 h, 50 µM [3]: 21.9%

COc1ccc(NC(=S)NC2CCN(c3cc(C)nc4ccc(C(F)(F)F)cc34)CC2)cc1
IC50 [1]: 34.5 µM | MIC [2]: 66.9 µM (≈ 31.7 µg/mL) | IC50 (DNA gyrase subunit B): 32.6 µM | inhibition at 48 h, 50 µM [3]: 41.8%

COc1ccc2nc(C)cc(N3CCC(NC(=S)Nc4ccc([N+](=O)[O-])cc4)CC3)c2c1
IC50 [1]: 0.88 µM | MIC [2]: 1.72 µM (≈ 0.777 µg/mL) | IC50 (DNA gyrase subunit B): 2.5 µM | inhibition at 48 h, 50 µM [3]: 24.9%

Cc1ccc(NC(=S)NC2CCN(c3cc(C)nc4ccc(F)cc34)CC2)cc1
IC50 [1]: 25.4 µM | MIC [2]: 67.9 µM (≈ 27.8 µg/mL) | IC50 (DNA gyrase subunit B): 59.3 µM | inhibition at 48 h, 50 µM [3]: 23.9%

Cc1cc(N2CCC(NC(=O)Nc3ccc(F)cc3)CC2)c2cc(F)ccc2n1
IC50 [1]: 0.78 µM | MIC [2]: 3.82 µM (≈ 1.51 µg/mL) | IC50 (DNA gyrase subunit B): 1.78 µM | inhibition at 48 h, 50 µM [3]: 25.4%

Cc1cc(N2CCC(NC(=O)Nc3ccc([N+](=O)[O-])cc3)CC2)c2cc(F)ccc2n1
IC50 [1]: 2.14 µM | MIC [2]: 9.52 µM (≈ 4.03 µg/mL) | IC50 (DNA gyrase subunit B): 6.83 µM | inhibition at 48 h, 50 µM [3]: 47.9%

Cc1cc(N2CCC(NC(=O)Nc3ccc(Cl)cc3)CC2)c2cc(F)ccc2n1
IC50 [1]: 29.6 µM | MIC [2]: 50.8 µM (≈ 21 µg/mL) | IC50 (DNA gyrase subunit B): 49 µM | inhibition at 48 h, 50 µM [3]: 49.7%

Cc1cc(N2CCC(NC(=S)Nc3ccc(F)cc3)CC2)c2cc(C(F)(F)F)ccc2n1
IC50 [1]: 22.8 µM | MIC [2]: 66.5 µM (≈ 30.8 µg/mL) | IC50 (DNA gyrase subunit B): 48.5 µM | inhibition at 48 h, 50 µM [3]: 50.7%

Cc1cc(N2CCC(NC(=S)Nc3ccccc3)CC2)c2cc(F)ccc2n1
IC50 [1]: 39.4 µM | MIC [2]: 63.3 µM (≈ 25 µg/mL) | IC50 (DNA gyrase subunit B): 68.2 µM | inhibition at 48 h, 50 µM [3]: 37.4%

Cc1cc(N2CCC(NC(=S)Nc3ccccc3)CC2)c2ccccc2n1
IC50 [1]: 9.4 µM | MIC [2]: 16.6 µM (≈ 6.25 µg/mL) | IC50 (DNA gyrase subunit B): 12.7 µM | inhibition at 48 h, 50 µM [3]: 11.8%

Cc1cc(N2CCC(NC(=S)Nc3ccc(Cl)cc3)CC2)c2cc(C(F)(F)F)ccc2n1
IC50 [1]: 4.12 µM | MIC [2]: 30.7 µM (≈ 14.7 µg/mL) | IC50 (DNA gyrase subunit B): 16.5 µM | inhibition at 48 h, 50 µM [3]: 11.8%

Cc1cc(N2CCC(NC(=S)Nc3ccc([N+](=O)[O-])cc3)CC2)c2cc(C(F)(F)F)ccc2n1
IC50 [1]: 7.54 µM | MIC [2]: 51.1 µM (≈ 25 µg/mL) | IC50 (DNA gyrase subunit B): 41.8 µM | inhibition at 48 h, 50 µM [3]: 19.8%

Cc1cc(N2CCC(NC(=S)Nc3ccc([N+](=O)[O-])cc3)CC2)c2ccccc2n1
IC50 [1]: 1.21 µM | MIC [2]: 7.65 µM (≈ 3.22 µg/mL) | IC50 (DNA gyrase subunit B): 3.77 µM | inhibition at 48 h, 50 µM [3]: 31.8%

COc1ccc2nc(C)cc(N3CCC(NC(=O)Nc4ccc(Cl)cc4)CC3)c2c1
IC50 [1]: 14.3 µM | MIC [2]: 17.4 µM (≈ 7.37 µg/mL) | IC50 (DNA gyrase subunit B): 16.2 µM | inhibition at 48 h, 50 µM [3]: 42.4%

Cc1cc(N2CCC(NC(=O)Nc3ccc(F)cc3)CC2)c2cc(C(F)(F)F)ccc2n1
IC50 [1]: 11.8 µM | MIC [2]: 24.9 µM (≈ 11.1 µg/mL) | IC50 (DNA gyrase subunit B): 19.8 µM | inhibition at 48 h, 50 µM [3]: 39.8%

Cc1ccc(NC(=S)NC2CCN(c3cc(C)nc4ccc(C(F)(F)F)cc34)CC2)cc1
IC50 [1]: 5.1 µM | MIC [2]: 31.7 µM (≈ 14.5 µg/mL) | IC50 (DNA gyrase subunit B): 24.7 µM | inhibition at 48 h, 50 µM [3]: 19.3%

COc1ccc(NC(=O)NC2CCN(c3cc(C)nc4ccc(F)cc34)CC2)cc1
IC50 [1]: 7.62 µM | MIC [2]: 7.65 µM (≈ 3.12 µg/mL) | IC50 (DNA gyrase subunit B): 10.1 µM | inhibition at 48 h, 50 µM [3]: 49.7%

Cc1cc(N2CCC(NC(=S)Nc3ccc(Cl)cc3)CC2)c2ccccc2n1
IC50 [1]: 8.12 µM | MIC [2]: 15.2 µM (≈ 6.25 µg/mL) | IC50 (DNA gyrase subunit B): 12.3 µM | inhibition at 48 h, 50 µM [3]: 20.8%

Cc1ccc(NC(=O)NC2CCN(c3cc(C)nc4ccccc34)CC2)cc1
IC50 [1]: 14.8 µM | MIC [2]: 24.1 µM (≈ 9.04 µg/mL) | IC50 (DNA gyrase subunit B): 20.5 µM | inhibition at 48 h, 50 µM [3]: 51.4%

Cc1cc(N2CCC(NC(=S)Nc3ccccc3)CC2)c2cc(C(F)(F)F)ccc2n1
IC50 [1]: 29.4 µM | MIC [2]: 35.8 µM (≈ 15.9 µg/mL) | IC50 (DNA gyrase subunit B): 39 µM | inhibition at 48 h, 50 µM [3]: 23.3%

Cc1cc(N2CCC(NC(=S)Nc3ccc(F)cc3)CC2)c2cc(F)ccc2n1
IC50 [1]: 23.5 µM | MIC [2]: 63.3 µM (≈ 26.1 µg/mL) | IC50 (DNA gyrase subunit B): 45.9 µM | inhibition at 48 h, 50 µM [3]: 33.9%

COc1ccc2nc(C)cc(N3CCC(NC(=O)Nc4ccc(C)cc4)CC3)c2c1
IC50 [1]: 8.63 µM | MIC [2]: 15.4 µM (≈ 6.25 µg/mL) | IC50 (DNA gyrase subunit B): 11.5 µM | inhibition at 48 h, 50 µM [3]: 28.2%

Cc1ccc(NC(=O)NC2CCN(c3cc(C)nc4ccc(C(F)(F)F)cc34)CC2)cc1
IC50 [1]: 9.2 µM | MIC [2]: 28.1 µM (≈ 12.4 µg/mL) | IC50 (DNA gyrase subunit B): 16.6 µM | inhibition at 48 h, 50 µM [3]: 16.2%

Cc1ccc(NC(=S)NC2CCN(c3cc(C)nc4ccccc34)CC2)cc1
IC50 [1]: 2.66 µM | MIC [2]: 15.7 µM (≈ 6.12 µg/mL) | IC50 (DNA gyrase subunit B): 7.26 µM | inhibition at 48 h, 50 µM [3]: 21.6%

Cc1ccc(NC(=O)NC2CCN(c3cc(C)nc4ccc(F)cc34)CC2)cc1
IC50 [1]: 8.83 µM | MIC [2]: 16 µM (≈ 6.27 µg/mL) | IC50 (DNA gyrase subunit B): 15 µM | inhibition at 48 h, 50 µM [3]: 39.7%

NNC(=O)c1ccncc1 [ISONIAZID]
MIC [2]: 0.66 µM (≈ 0.0905 µg/mL)

CO[C@@H]1[C@@H](OC(N)=O)[C@@H](O)[C@H](Oc2ccc3c(O)c(NC(=O)c4ccc(O)c(CC=C(C)C)c4)c(=O)oc3c2C)OC1(C)C [NOVOBIOCIN]
MIC [2]: > 200 µM

Cc1cc(N2CCC(NC(=O)Nc3ccc([N+](=O)[O-])cc3)CC2)c2cc(C(F)(F)F)ccc2n1
IC50 [1]: 22.3 µM | MIC [2]: 52.2 µM (≈ 24.7 µg/mL) | IC50 (DNA gyrase subunit B): 47.6 µM | inhibition at 48 h, 50 µM [3]: 48.2%

COc1ccc(NC(=O)NC2CCN(c3cc(C)nc4ccccc34)CC2)cc1
IC50 [1]: 18.5 µM | MIC [2]: 32 µM (≈ 12.5 µg/mL) | IC50 (DNA gyrase subunit B): 22 µM | inhibition at 48 h, 50 µM [3]: 49.5%

COc1c(N2C[C@@H]3CCCN[C@@H]3C2)c(F)cc2c(=O)c(C(=O)O)cn(C3CC3)c12 [MOXIFLOXACIN]
MIC [2]: 1.26 µM (≈ 0.506 µg/mL) | IC50 (DNA gyrase subunit B): > 50 µM

COc1ccc2nc(C)cc(N3CCC(NC(=O)Nc4ccc([N+](=O)[O-])cc4)CC3)c2c1
IC50 [1]: 5.33 µM | MIC [2]: 14.7 µM (≈ 6.4 µg/mL) | IC50 (DNA gyrase subunit B): 6.99 µM | inhibition at 48 h, 50 µM [3]: 35%

COc1ccc2nc(C)cc(N3CCC(NC(=O)Nc4ccccc4)CC3)c2c1
IC50 [1]: 9.32 µM | MIC [2]: 32 µM (≈ 12.5 µg/mL) | IC50 (DNA gyrase subunit B): 12.2 µM | inhibition at 48 h, 50 µM [3]: 66.5%

COc1ccc(NC(=S)NC2CCN(c3cc(C)nc4ccc(F)cc34)CC2)cc1
IC50 [1]: 17.8 µM | MIC [2]: 31.7 µM (≈ 13.4 µg/mL) | IC50 (DNA gyrase subunit B): 39.5 µM | inhibition at 48 h, 50 µM [3]: 21.3%

COc1ccc2nc(C)cc(N3CCC(NC(=O)Nc4ccc(F)cc4)CC3)c2c1
IC50 [1]: 14.8 µM | MIC [2]: 25.7 µM (≈ 10.5 µg/mL) | IC50 (DNA gyrase subunit B): 18.5 µM | inhibition at 48 h, 50 µM [3]: 17.3%

CO[C@H]1/C=C/O[C@@]2(C)Oc3c(C)c(O)c4c(O)c(c(/C=N/N5CCN(C)CC5)c(O)c4c3C2=O)NC(=O)/C(C)=C\C=C\[C@H](C)[C@H](O)[C@@H](C)[C@@H](O)[C@@H](C)[C@H](OC(C)=O)[C@@H]1C [RIFAMPIN]
MIC [2]: 0.23 µM (≈ 0.189 µg/mL)
